Experimental data taken from US8604059B2, “Thioxanthene derivatives for the treatment of infectious diseases” (BKG Pharma APS, priority 2009, dated 2013).
Converted amounts (≈) assume the structure as drawn. “And” between values parts separate entries of the source, which are not always exact repeats. Equal values may be shown once.

Columns and labels:
MT4 cells = assay: Cytotoxic effect in uninfected MT4 cultures; type: cell-based; settings: at the concentrations used
Procedure: (§1) Compounds were examined for possible antiviral activity against strain IIIB of HIV-1 using MT4 cells as target cells. MT4 cells were incubated with virus (0.005 MOI) and growth medium containing the test dilutions of compound(s) for six days in parallel with virus-infected and uninfected control cultures without compound added. Expression of HIV in the cultures was indirectly quantified using the MTT assay as previously described. Compounds mediating less than 30% reduction of HIV expression were considered without biological activity. Compounds were tested in parallel for cytotoxic effect in uninfected MT4 cultures containing the test dilutions of compound as described above. Cultures for test of both antiviral activity and cytotoxic effect were set up in tripleduplicates, […] per culture in micro titre plates. A 30% inhibition of cell growth relative to control cultures was considered significant. The 50% inhibitory concentration was determined by interpolation from the plots of percent inhibition versus concentration of compound.
(§2) CC50 is defined as the inhibitory concentration that reduces cellular growth or viability of uninfected cells by 50%.

[1] = Cytotoxic effect in uninfected MT4 cultures; type: cell-based; settings: human, uninfected MT4 cells; single agent; uninfected MT4
Procedure: as §1, §2

[2] = system: Enterococcus faecalis BG VSE-92; assay: Mouse peritonitis/sepsis model, NMRI mice; type: in vivo; settings: 3.1 mg/kg s.c.
Procedure: Mouse peritonitis/sepsis model.
A clinical isolate of Enterococcus faecalis BG VSE-92 from human urine was used. This strain is a multiresistant isolate.
Female NMRI mice (age, approximately 6 to 8 weeks; weight, 30±2 g) were used for the mouse […] peritonitis model (as described below).
Bacterial suspensions were prepared from fresh overnight cultures (made from frozen stock cultures) on 5% blood agar plates as described above. The inoculum for the mouse peritonitis model was prepared immediately before use and was adjusted at 540 nm of giving a density of approximately 10^7 CFU/ml. The size of the inoculum was determined by viability counting on 5% blood agar.
The mice were injected intraperitoneally with 0.5 ml of the enterococcal suspension, resulting in bacteremia within 1 h of inoculation. Antibiotic therapy was initiated 1 h after inoculation. N-dealkyl-Trans-clopenthixol was administered subcutaneously in the neck region in a volume of 0.7 ml per dose. Five mice were in each treatment group. Inoculated untreated control mice were included in all trials. (Method reference: Erlandsdottir et al; Antimicrob Agents Chemother. 2001 April; 45(4):1078-85)
The effects of the various treatment regimens were determined during 5 h of treatment by evaluation of bacterial counts in the peritoneal fluid. The bactericidal efficacies of the treatment regimens in the mouse models were calculated by subtracting the results for each treated mouse from the mean results for control mice at the end of therapy (5 h). A decrease of one thousand times (3 log 10 steps) represents maximum effect in this model and sustains strong bacterial killing effect of the compound tested.

E. faecium = assay: MIC, microdilution broth, multiresistant clinical isolates (Table 1A); type: cell-based; settings: Enterococcus faecium; ten multiresistant clinical isolates; read-out: Median MIC E. faecium
Procedure: (§3) Cell growth was tested using the Minimal Inhibitory Concentration (MIC) susceptibility tests by use of the microdilution broth method in accordance to the NCCLS Guidelines (NCCLS Guidelines, Methods for Dilution Antimicrobial Susceptibility Tests for Bacteria That Grow Aerobically; Approved Standard, Sixth Edition, Volume 23; Number 2). The minimum inhibitory concentration (MIC), is defined as the lowest concentration of drug which inhibits growth of the test organism, in the sense that no visible growth is detected (total inhibition of growth). In example 2, MIC of the compounds used on fungal microorgansims was determined from the IC90 measurements according to NCCLS Guidelines.
(§4) A log phase culture of bacteria was diluted with fresh pre-warmed Mueller-Hinton medium and adjusted to a defined OD at 600 nm in order to give a final concentration of 1×10^4-5 bacteria/ml medium. The bacterial culture was transferred to microtiter-plates and culture was added to each well. […] Trays were incubated at 37° C. by shaking in a robot analyzer, PowerWavex, software KC^4′ Kebo. Lab, Copenhagen, for 16 h and optical densities were measured at 600 nm during the incubation time in order to record growth curves. Wells containing bacterial culture without drug were used as controls to ensure correct inoculum size and bacterial growth during the incubation. Cultures were tested in order to detect contaminations. Each experiment was repeated in triplicate.
(§5) Ten strains in each test group.

S. aureus = assay: as above; type: cell-based; settings: Staphylococcus aureus; ten multiresistant clinical isolates; read-out: Median MIC S. aureus
Procedure: as §3, §4, §5

E. coli = assay: as above; type: cell-based; settings: Escherichia coli; ten multiresistant clinical isolates; read-out: Median MIC E. coli
Procedure: as §3, §4, §5

E. faecalis = assay: as above; type: cell-based; settings: Enterococcus faecalis; ten multiresistant clinical isolates; read-out: Median MIC E. faecalis
Procedure: as §3, §4, §5

S. epidermidis = assay: as above; type: cell-based; settings: Staphylococcus epidermidis; ten multiresistant clinical isolates; read-out: Median MIC S. epidermidis
Procedure: as §3, §4, §5

Enterococci sp. = assay: MIC on multiresistant and susceptible clinical isolates of Enterococci (Table 2); type: cell-based, Enterococcus faecalis and Enterococcus faecium; settings: 8 multiresistant (VanA, VanB, HLAR, BLR,CR) and 8 susceptible isolates
Procedure: as §3
A log phase culture of bacteria was diluted with fresh pre-warmed Mueller-Hinton medium and adjusted to a defined OD at 600 nm in order to give a final concentration of 1×10^4-5 bacteria/ml medium. The bacterial culture was transferred to microtiter-plates and culture was added to each well. Drug was added to the bacterial culture in the wells as two-fold dilution series of drug in order to give final concentrations ranging from 0.03 to 128 μg/ml. Trays were incubated at 37° C. by shaking in a robot analyzer, PowerWavex, software KC^4′ Kebo. Lab, Copenhagen, for 16 h and optical densities were measured at 600 nm during the incubation time in order to record growth curves. […]

[3] = system: E. coli MDR clinical isolates; assay: FIC index, synergy with antibiotics (Table 4a); type: cell-based; settings: 8 MDR E. coli, mean, compound at ¼ of MIC
Procedure: The effect of the compounds was tested according to the methods described in WO2005/105145. In brief, cell growth was tested using the MIC susceptibility tests by use of the microdilution broth method in accordance to the NCCLS Guidelines (NCCLS Guidelines, Methods for Dilution Antimicrobial Susceptibility Tests for Bacteria That Grow Aerobically; Approved Standard, Sixth Edition, Volume 23; Number 2).
The Fractional Inhibitory Concentration (FIC) index were calculated for each compound as described in WO2005/105145. Synergy was defined for Fractional Inhibitory Concentration (FIC) indices less than 0.5
E. coli: 8 in vivo-selected multidrug resistant clinical isolates of E. coli. Resistant to tetracycline, beta-lactams, fluoroquinolones, chloramphenicol and aminoglycoside

## Clc1ccc2c(c1)/C(=C/CCC1CCNCC1)c1ccccc1S2 [Compound 3]
MT4 cells
  Cytotoxic effect alone: no antiviral or cytotoxic effect
[1]
  CC50 at 6 days: > 4 µM
[2]; 5 hours, vs control
  Decrease of number of bacteria per ml of peritoneal fluid: 3 log 10 steps
[2]; p<0.05
  Bacteria survived after 5 hours: 0.001%
[2]; treatment 0 and 1 hour, sampling 5 hours, individual mice
  CFU/ml - peritoneum: 2.05E+06 CFU/ml and 2.90E+06 CFU/ml and 4.25E+06 CFU/ml
E. faecium
  MIC: 0.1 µg/mL (≈ 0.281 µM)
S. aureus
  MIC: 2 µg/mL (≈ 5.62 µM)
E. coli
  MIC: 3 µg/mL (≈ 8.43 µM)
E. faecalis
  MIC: 0.1 µg/mL (≈ 0.281 µM)
S. epidermidis
  MIC: 1 µg/mL (≈ 2.81 µM)
Enterococci sp.
  MIC Mean (range): 0.125 (0.06-0.125) μ/ml
[3]; with Ampicillin
  FIC index: 0.44
[3]; with Ciprofloxacin
  FIC index: 0.44
[3]; with Gentamycin
  FIC index: 0.44
[3]; with Tetracycline
  FIC index: 0.44
